According to patent US11046716B2, “Beta-lactamase inhibitors” (priority 2015, dated 2021):

Tests used:
SHV-5 = molecular target: T1, SHV-5 (Klebsiella pneumoniae, UniProt P0A3M1); experiment: β-lactamase enzyme inhibition assay, SHV-5 (cefotaxime substrate); type: biochemical
T1 construct: made in house; host or cells: E. coli BL21(DE3)
Procedure, shortened: (§1)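 Compounds are mixed with purified, untagged recombinant β-lactamase and held 15 min at 37 °C. Substrate is then added: nitrocefin (100 μM final) for OXA-1, imipenem for KPC-2, cefotaxime for SHV-5. Absorbance is followed immediately, and percent inhibition per concentration gives the IC50.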

KPC-2 = molecular target: T2, KPC-2 (Klebsiella pneumoniae, UniProt Q9F663); experiment: β-lactamase enzyme inhibition assay, KPC-2 (imipenem substrate); type: biochemical; conditions: Class A; imipenem substrate, 300 nm; read-out: KPC-2
T2 construct: made in house; host or cells: E. coli BL21(DE3)
T2 sequence (Q9F663 25-293, looked up): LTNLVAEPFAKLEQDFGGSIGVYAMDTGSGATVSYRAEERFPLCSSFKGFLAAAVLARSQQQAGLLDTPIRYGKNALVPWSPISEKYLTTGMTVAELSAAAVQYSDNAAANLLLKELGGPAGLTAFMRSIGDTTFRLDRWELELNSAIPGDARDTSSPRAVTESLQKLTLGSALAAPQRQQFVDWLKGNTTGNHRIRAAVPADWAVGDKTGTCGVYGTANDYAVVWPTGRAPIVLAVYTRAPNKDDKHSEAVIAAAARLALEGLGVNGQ
Procedure, shortened: as §1

VIM-2 = molecular target: T3, VIM-2 (Escherichia coli, UniProt Q5U7L7); experiment: β-lactamase enzyme inhibition assay, VIM-2 (nitrocefin substrate); type: biochemical; conditions: Class B; nitrocefin substrate, 486 nm; read-out: VIM-2
T3 construct: made in house; host or cells: E. coli BL21(DE3)
Procedure, shortened: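 Nitrocefin hydrolysis (100 μM final, A486 read for 10 min) by purified VIM-2 after a 15-min, 37° C enzyme–inhibitor preincubation. IC50 is the concentration halving initial hydrolysis rate, derived from percent inhibition against no-inhibitor wells.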

AmpC = molecular target: T4, AmpC (Enterobacter cloacae, UniProt P05364); experiment: β-lactamase enzyme inhibition assay, p99 AmpC (nitrocefin substrate); type: biochemical
T4 construct: made in house; host or cells: E. coli BL21(DE3)
T4 sequence (P05364 21-381): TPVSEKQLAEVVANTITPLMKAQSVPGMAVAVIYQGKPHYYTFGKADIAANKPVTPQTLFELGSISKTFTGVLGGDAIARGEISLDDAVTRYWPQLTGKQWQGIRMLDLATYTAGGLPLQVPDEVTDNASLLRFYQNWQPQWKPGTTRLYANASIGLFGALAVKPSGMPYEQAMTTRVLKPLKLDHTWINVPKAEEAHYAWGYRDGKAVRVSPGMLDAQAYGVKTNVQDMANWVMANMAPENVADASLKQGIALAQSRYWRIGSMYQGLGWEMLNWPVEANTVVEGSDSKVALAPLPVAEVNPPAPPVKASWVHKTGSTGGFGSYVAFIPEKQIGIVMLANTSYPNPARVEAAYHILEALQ
Procedure, shortened: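 Compounds are mixed with purified, untagged recombinant β-lactamase and held 15 min at 37 °C. Substrate is then added. Absorbance is followed immediately, and percent inhibition per concentration gives the IC50.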

OXA-48 = OXA-48 (UniProt Q6XEC0); experiment: β-lactamase enzyme inhibition assay, Class D oxacillinase; type: biochemical; conditions: read-out: OXA-48
[1] = system: E. coli expressing the Class A Extended Spectrum Beta-Lactamase (ESBL) CTX-M-15; experiment: Broth microdilution MIC assay with ceftazidime, E. coli CTX-M-15; type: cell-based; conditions: Fixed CAZ (ceftazidime) 4 μg/mL; E. coli ESBL4 CTX-M-15
Procedure, shortened: (§2)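 CLSI broth microdilution in cation-adjusted Mueller Hinton broth measured growth of β-lactamase-expressing strains, grown 3-5 h beforehand. The β-lactam partner was held at 4 μg/ml final while test compound was titrated 2-fold from 16 to 0.125 μg/mL final. After 16-20 h at 37° C, the compound MIC was determined by eye.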

[2] = system: E. cloacae expressing the Class C P99; experiment: Broth microdilution MIC assay with ceftazidime, E. cloacae P99; type: cell-based; conditions: Fixed CAZ (ceftazidime) 4 μg/mL; E. cl. 144200 p99 AmpC
Procedure, shortened: as §2

[3] = system: K. pneumoniae expressing the Class A carbapenemase KPC-2; experiment: Broth microdilution MIC assay with meropenem, K. pneumoniae KPC-2; type: cell-based; conditions: Fixed Mero (meropenem) 4 μg/mL; K. p. 156319 KPC-3
Procedure, shortened: as §2

[4] = system: P. aeruginosa expressing the Class B carbapenemase VIM-2; experiment: Broth microdilution MIC assay with meropenem, P. aeruginosa VIM-2; type: cell-based; conditions: Fixed Mero (meropenem) 4 μg/mL; P. aerug. 2775 VIM-2
Procedure, shortened: as §2

[5] = system: K. pneumoniae expressing the class A carbapenemase KPC-2 and the class B carbapenemase VIM-4; experiment: Broth microdilution MIC assay with meropenem, K. pneumoniae KPC-2 and VIM-4; type: cell-based; conditions: Fixed Mero (meropenem) 4 μg/mL; K. p. A-1797 KPC-2 VIM-4
Procedure, shortened: as §2

[6] = system: K. pneumoniae producing the Class D carbapenemase OXA-48; experiment: Broth microdilution MIC assay with meropenem, K. pneumoniae OXA-48; type: cell-based; conditions: Fixed Mero (meropenem) 4 μg/mL; K. p. 11978 OXA-48
Procedure, shortened: as §2

T1 sequence (P0A3M1 22-286): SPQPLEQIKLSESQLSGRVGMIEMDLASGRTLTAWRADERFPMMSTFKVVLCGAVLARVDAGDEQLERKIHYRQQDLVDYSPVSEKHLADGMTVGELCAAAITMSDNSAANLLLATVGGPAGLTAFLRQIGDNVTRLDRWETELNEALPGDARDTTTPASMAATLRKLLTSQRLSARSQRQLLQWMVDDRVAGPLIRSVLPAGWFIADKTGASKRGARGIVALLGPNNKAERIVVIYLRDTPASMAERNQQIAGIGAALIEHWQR

Row | Compound | IC50 (SHV-5) | IC50 (KPC-2) | IC50 (VIM-2) | IC50 (AmpC) | IC50 (OXA-48) | MIC (μg/mL) of Exemplary Compounds in presence of fixed β-lactams: E. coli ESBL4 CTX-M-15 [1] | MIC (μg/mL) of Exemplary Compounds in presence of fixed β-lactams: E. cl. 144200 p99 AmpC [2] | MIC (μg/mL) of Exemplary Compounds in presence of fixed β-lactams: K. p. 156319 KPC-3 [3] | MIC (μg/mL) of Exemplary Compounds in presence of fixed β-lactams: P. aerug. 2775 VIM-2 [4] | MIC (μg/mL) of Exemplary Compounds in presence of fixed β-lactams: K. p. A-1797 KPC-2 VIM-4 [5] | MIC (μg/mL) of Exemplary Compounds in presence of fixed β-lactams: K. p. 11978 OXA-48 [6]
1 | NCc1cnnn1CC(=O)N[C@H]1Cc2cccc(C(=O)O)c2OB1O [Example 13, (R)-3-(2-(5-(aminomethyl)-1H-1,2,3-triazol-1-yl)acetamido)-2-hydroxy-3,4-dihydro-2H-benzo[e][1,2]oxaborinine-8-carboxylic acid] | 100 to 1000 nM | < 100 nM | 100 to 1000 nM | < 100 nM | 100 to 1000 nM | B (B represents an MIC between 1 and 16 μg/mL inclusive) | C (C represents an MIC of <1 μg/mL) | B (B represents an MIC between 1 and 16 μg/mL inclusive) | B (B represents an MIC between 1 and 16 μg/mL inclusive) | B (B represents an MIC between 1 and 16 μg/mL inclusive) | B (B represents an MIC between 1 and 16 μg/mL inclusive)
2 | CC(C)(CN)CNC(=O)c1cn(CC(=O)N[C@H]2Cc3cccc(C(=O)O)c3OB2O)nn1 [Example 86, (R)-3-(2-(4-((3-amino-2,2-dimethylpropyl)carbamoyl)-1H-1,2,3-triazol-1-yl)acetamido)-2-hydroxy-3,4-dihydro-2H-benzo[e][1,2]oxaborinine-8-carboxylic acid] | 100 to 1000 nM | < 100 nM | < 100 nM | 100 to 1000 nM | 1000 to 10000 nM | C (C represents an MIC of <1 μg/mL) | C (C represents an MIC of <1 μg/mL) | C (C represents an MIC of <1 μg/mL) | C (C represents an MIC of <1 μg/mL) | C (C represents an MIC of <1 μg/mL) | B (B represents an MIC between 1 and 16 μg/mL inclusive)
3 | O=C(Cn1cc(C(=O)N[C@H]2CCNC2)nn1)N[C@H]1Cc2cccc(C(=O)O)c2OB1O [Example 81, (R)-2-hydroxy-3-(2-(4-(((S)-pyrrolidin-3-yl)carbamoyl)-1H-1,2,3-triazol-1-yl)acetamido)-3,4-dihydro-2H-benzo[e][1,2]oxaborinine-8-carboxylic acid] | < 100 nM | < 100 nM | < 100 nM | < 100 nM | 100 to 1000 nM | C (C represents an MIC of <1 μg/mL) | C (C represents an MIC of <1 μg/mL) | C (C represents an MIC of <1 μg/mL) | C (C represents an MIC of <1 μg/mL) | C (C represents an MIC of <1 μg/mL) | C (C represents an MIC of <1 μg/mL)
4 | O=C(Cc1nnnn1CCF)N[C@H]1Cc2cccc(C(=O)O)c2OB1O [Example 101, (R)-3-(2-(1-(2-fluoroethyl)-1H-tetrazol-5-yl)acetamido)-2-hydroxy-3,4-dihydro-2H-benzo[e][1,2]oxaborinine-8-carboxylic acid] | < 100 nM | < 100 nM | 100 to 1000 nM | < 100 nM | < 100 nM | C (C represents an MIC of <1 μg/mL) | C (C represents an MIC of <1 μg/mL) | B (B represents an MIC between 1 and 16 μg/mL inclusive) | C (C represents an MIC of <1 μg/mL) | B (B represents an MIC between 1 and 16 μg/mL inclusive) | C (C represents an MIC of <1 μg/mL)
5 | NOCC(=O)NCc1cn(CC(=O)N[C@H]2Cc3cccc(C(=O)O)c3OB2O)nn1 [Example 77, (R)-3-(2-(4-((2-(aminooxy)acetamido)methyl)-1H-1,2,3-triazol-1-yl)acetamido)-2-hydroxy-3,4-dihydro-2H-benzo[e][1,2]oxaborinine-8-carboxylic acid] | < 100 nM | < 100 nM | 100 to 1000 nM | < 100 nM | 100 to 1000 nM | C (C represents an MIC of <1 μg/mL) | C (C represents an MIC of <1 μg/mL) | C (C represents an MIC of <1 μg/mL) | C (C represents an MIC of <1 μg/mL) | B (B represents an MIC between 1 and 16 μg/mL inclusive) | B (B represents an MIC between 1 and 16 μg/mL inclusive)
6 | N=C(N)NCc1cn(CC(=O)N[C@H]2Cc3cccc(C(=O)O)c3OB2O)nn1 [Example 3, (R)-3-(2-(4-(guanidinomethyl)-1H-1,2,3-triazol-1-yl)acetamido)-2-hydroxy-3,4-dihydro-2H-benzo[e][1,2]oxaborinine-8-carboxylic acid] | < 100 nM | < 100 nM | < 100 nM | < 100 nM | < 100 nM | C (C represents an MIC of <1 μg/mL) | C (C represents an MIC of <1 μg/mL) | C (C represents an MIC of <1 μg/mL) | C (C represents an MIC of <1 μg/mL) | C (C represents an MIC of <1 μg/mL) | C (C represents an MIC of <1 μg/mL)
